In US20130184302A1, “METHODS FOR TREATING IRRITABLE BOWEL SYNDROME (IBS) AND INFECTIONS” (priority 2011, published 2013):

Experiments:
Type in all cases: in vivo, human
subjects with d-IBS = experiment: Designed study of 14-day oral rifaximin 550 mg TID in d-IBS (Example 2); details: oral rifaximin 550 mg TID 14 days
Text: A measure of efficacy is based on subjects' answers to the Weekly Subject Global Assessment (SGA) questions over the 4 week study duration in relation to their IBS symptoms.

[1] = system: patients with diarrhea-predominant IBS; experiment: IBS-QOL questionnaire, rifaximin 550 mg BID vs placebo in d-IBS
Experimental: Both groups received placebo for an additional 14 days after the initial 2-week treatment. Quality of life was assessed with the 34-item IBS-QOL questionnaire at baseline and 4 weeks after initiating treatment. Each item was scored on a 5-point scale (1=not at all; 2=slightly; 3=moderately; 4=quite a bit; and 5=extremely or a great deal). Results for composite and subscale scores were converted to a scale ranging from 0 to 100, with higher scores indicating better QOL.
Following a 2-week initial treatment period, both groups of patients received placebo for an additional 14 days. Quality of life was assessed via the 34-item IBS-QOL questionnaire at baseline and 4 weeks after initiating treatment. Each item was scored on a 5-point scale (1=not at all; 2=slightly; 3=moderately; 4=quite a bit; 5=extremely or a great deal); results for composite and subscale scores were converted to a scale ranging from 0 to 100, with higher scores indicating better QOL.

[2] = system: C. difficile infection (CDI); experiment: CDI trial: recurrence of CDI, recurrence rate per person-year
Text: Recurrence was defined to be a diarrhea and a positive C. diff stool toxin assay that occurred after initial clinical success.

[3] = system: C. difficile infection (CDI); experiment: CDI trial rifaximin 400 mg TID vs vancomycin 125 mg QID: clinical success at Test of Cure
Experimental: Criteria for entry into the trial were: • Age>=18 years old; • Had acute diarrhea at screening defined as >=3 unformed stools in the last 24 hours and at least one sign of enteric infection (fever, nausea, lose of appetite, vomiting, severe abdominal pain/discomfort); and • a positive C. diff stool toxin assay
The primary efficacy endpoint of the study was defined as the proportion of subjects achieving clinical success. Specifically, clinical success was defined as the absence of severe abdominal pain at Test of Cure (TOC), absence of fever (<38° C.) at TOC, and <3 unformed stools for two consecutive days at TOC.
The non-inferiority margin for the primary endpoint was defined as lower bound of 95% CI of delta above −15%.
Clinical success was defined as the: Absence of severe abdominal pain at TOC, absence of fever (<38° C.) at TOC, and <3 unformed stools for two consecutive days at TOC. Test of cure defined as Day 14+/−1 day.

subjects with IBS = experiment: Analysis of two studies after 3 months: global IBS symptoms, abdominal pain, bloating responders; details: for Responders: Abdominal pain reduction of 1 point in median: at least 2 weeks during PEP; for Global IBS symptoms: at least 2 out of 4 weeks adequate relief during weeks 3 through 6 (weekly question): 550 mg TID 14 days
Text: A measure of efficacy is based on subjects' answers to the Weekly Subject Global Assessment (SGA) questions over the study duration in relation to their IBS symptoms.
The study endpoints of the studies were Global IBS symptoms and AUC in abdominal pain during the study.
The primary and secondary endpoints evaluated in this study were the effect of treatment on the percentage of subjects who reported adequate relief of Global IBS symptoms, reduction in abdominal pain and the adequate relief of IBS symptom of bloating.

[4] = after initial clinical success, Rifaximin N = 67, Vancomycin N = 73
[5] = all subjects, Rifaximin N = 117, Vancomycin N = 115
[6] = at TOC (Day 14+/−1), Rifaximin N = 117, Vancomycin N = 115

SMILES: CO[C@H]1/C=C/O[C@@]2(C)Oc3c(C)c(O)c4c(O)c(c5c(nc6cc(C)ccn65)c4c3C2=O)NC(=O)/C(C)=C\C=C\[C@H](C)[C@H](O)[C@@H](C)[C@@H](O)[C@@H](C)[C@H](OC(C)=O)[C@@H]1C [Rifaximin, (2S,16Z,18E,20S,21S,22R, 23R,24R,25S,26S,27S,28E)-5,6,21,23,25 Pentahydroxy-27-methoxy-2,4,11,16,20,22,24,26-octamethyl-2,7-(epoxypentadeca-(1,11,13)trienimino) benzofuro (4,5-e) pyrido(1,2,-a) benzimidazole-1,15(2H)-dione,25-acetate]
- Answers to weekly SGA question on adequate relief of IBS symptom of bloating (subjects with d-IBS): respond “Yes” more often
- Answers to weekly SGA question on adequate relief of IBS symptoms (subjects with d-IBS): respond “Yes” more often
- Mean Change From Baseline in IBS-QOL Scores at Week 4: Body image ([1]; Rifaximin 1100 mg/d (n = 191)): 20.1
- Mean Change From Baseline in IBS-QOL Scores at Week 4: Dysphoria ([1]; Rifaximin 1100 mg/d (n = 191)): 24.8
- Mean Change From Baseline in IBS-QOL Scores at Week 4: Food avoidance ([1]; Rifaximin 1100 mg/d (n = 191)): 25.0
- Mean Change From Baseline in IBS-QOL Scores at Week 4: Health worry ([1]; Rifaximin 1100 mg/d (n = 191)): 16.0
- Mean Change From Baseline in IBS-QOL Scores at Week 4: Interference with activity ([1]; Rifaximin 1100 mg/d (n = 191)): 22.2
- Mean Change From Baseline in IBS-QOL Scores at Week 4: Relationship ([1]; Rifaximin 1100 mg/d (n = 191)): 14.9
- Mean Change From Baseline in IBS-QOL Scores at Week 4: Sexual ([1]; Rifaximin 1100 mg/d (n = 191)): 13.6
- Mean Change From Baseline in IBS-QOL Scores at Week 4: Social reaction ([1]; Rifaximin 1100 mg/d (n = 191)): 17.3
- Mean Change From Baseline in IBS-QOL Scores at Week 4: Overall score ([1]; Rifaximin 1100 mg/d (n = 191), scale 0 to 100): 20.4
- Improvement with rifaximin over placebo, IBS-QOL: Body image ([1]; Week 4, 1100 mg/d): 37.4%
- Improvement with rifaximin over placebo, IBS-QOL: Dysphoria ([1]; Week 4, 1100 mg/d): 25.3%
- Improvement with rifaximin over placebo, IBS-QOL: Food avoidance ([1]; Week 4, 1100 mg/d): 22.1%
- Improvement with rifaximin over placebo, IBS-QOL: Health worry ([1]; Week 4, 1100 mg/d): 30.6%
- Improvement with rifaximin over placebo, IBS-QOL: Interference with activity ([1]; Week 4, 1100 mg/d): 22.2%
- Improvement with rifaximin over placebo, IBS-QOL: Overall score ([1]; Week 4, 1100 mg/d): 28.7%
- Improvement with rifaximin over placebo, IBS-QOL: Relationship ([1]; Week 4, 1100 mg/d): 39.5%
- Improvement with rifaximin over placebo, IBS-QOL: Sexual ([1]; Week 4, 1100 mg/d): 24.9%
- Improvement with rifaximin over placebo, IBS-QOL: Social reaction ([1]; Week 4, 1100 mg/d): 31.6%
- Recurrence Rate per Person-Year Exposure ([2]; Rifaximin N = 117, Vancomycin N = 115): 0.613
- Recurrence of CDI: Treatment Difference ([2]; Rifaximin vs Vancomycin, subjects with initial clinical success): 4.7%
- No Recurrence of CDI, number of subjects [2, 4]: 61
- No Recurrence of CDI, percent of subjects [2, 4]: (91%)
- Recurrence of CDI, number of subjects [2, 4]: 6
- Recurrence of CDI, percent of subjects [2, 4]: (9%)
- Recurrence: No, number of subjects [2, 5]: 111
- Recurrence: No, percent of subjects [2, 5]: (95%)
- Recurrence: Yes, number of subjects [2, 5]: 6
- Recurrence: Yes, percent of subjects [2, 5]: (5%)
- Clinical Success: Treatment Difference ([3]; Rifaximin vs Vancomycin, at TOC): −6.2%
- Clinical Success: Yes, number of subjects ([3]; at TOC (Day 14+/−1), Rifaximin 400 mg TID N = 117, Vancomycin 125 mg QID N = 115): 67
- Clinical Success: No, number of subjects [3, 6]: 50
- Clinical Success: No, percent of subjects [3, 6]: (43%)
- Clinical Success: Yes, percent of subjects [3, 6]: (57%)
- IBS symptom of Bloating: at least 2 out of 4 weeks adequate relief during weeks 3 through 6 (subjects with IBS; Combined): 30% vs 40%
- Responders: Abdominal Pain reduction of 2 point in mean (subjects with IBS; Combined): 18% vs 25%
- Responders: Abdominal Pain reduction of 2 point in median (subjects with IBS; Combined): 32% vs 39%
- Responders: Abdominal Pain reduction of 3 point in mean (subjects with IBS; Combined): 6% vs 7%
- Responders: Abdominal Pain reduction of 3 point in median (subjects with IBS; Combined): 18% vs 21%
- Responders: Abdominal pain reduction of 1 point in mean (subjects with IBS; Combined): 42% vs 52%
- Responders: Daily abdominal pain <2 (subjects with IBS; Combined): 31% vs 39%
- Responders: Overall reduction of mean weekly abdominal pain by > = 25% (subjects with IBS; Combined): 47% vs 57%
- Responders: Overall reduction of mean weekly abdominal pain by > = 50% (subjects with IBS; Combined): 28% vs 35%
- Responders: Overall reduction of mean weekly abdominal pain by > = 75% (subjects with IBS; Combined): 11% vs 14%
- Responders: Overall reduction of median weekly abdominal pain by > = 25% (subjects with IBS; Combined): 52% vs 62%
- Responders: Overall reduction of median weekly abdominal pain by > = 50% (subjects with IBS; Combined): 34% vs 44%
- Responders: Overall reduction of median weekly abdominal pain by > = 75% (subjects with IBS; Combined): 18% vs 21%
- Responders: Abdominal pain reduction of 1 point in median (subjects with IBS; Combined): 53% vs 63%
- IBS symptom of Bloating: at least 2 out of 4 weeks adequate relief during weeks 3 through 6 (subjects with IBS; Study 2): 32% vs 41%
- Responders: Abdominal Pain reduction of 2 point in mean (subjects with IBS; Study 2): 18% vs 25%
- Responders: Abdominal Pain reduction of 2 point in median (subjects with IBS; Study 2): 30% vs 41%
- Responders: Abdominal Pain reduction of 3 point in mean (subjects with IBS; Study 2): 6% vs 7%
- Responders: Abdominal Pain reduction of 3 point in median (subjects with IBS; Study 2): 17% vs 21%
- Responders: Abdominal pain reduction of 1 point in mean (subjects with IBS; Study 2): 43% vs 52%
- Responders: Daily abdominal pain <2 (subjects with IBS; Study 2): 31% vs 39%
- Responders: Overall reduction of mean weekly abdominal pain by > = 25% (subjects with IBS; Study 2): 47% vs 58%
- Responders: Overall reduction of mean weekly abdominal pain by > = 50% (subjects with IBS; Study 2): 29% vs 35%
- Responders: Overall reduction of mean weekly abdominal pain by > = 75% (subjects with IBS; Study 2): 11% vs 14%
- Responders: Overall reduction of median weekly abdominal pain by > = 25% (subjects with IBS; Study 2): 52% vs 62%
- Responders: Overall reduction of median weekly abdominal pain by > = 50% (subjects with IBS; Study 2): 35% vs 44%
- Responders: Overall reduction of median weekly abdominal pain by > = 75% (subjects with IBS; Study 2): 17% vs 20%
- Responders: Abdominal pain reduction of 1 point in median (subjects with IBS; Study 2): 53% vs 62%
- IBS symptom of Bloating: at least 2 out of 4 weeks adequate relief during weeks 3 through 6 (subjects with IBS; Study [1]): 29% vs 40%
- Responders: Abdominal Pain reduction of 2 point in mean (subjects with IBS; Study [1]): 18% vs 26%
- Responders: Abdominal Pain reduction of 2 point in median (subjects with IBS; Study [1]): 33% vs 37%
- Responders: Abdominal Pain reduction of 3 point in mean (subjects with IBS; Study [1]): 6% vs 7%
- Responders: Abdominal Pain reduction of 3 point in median (subjects with IBS; Study [1]): 19% vs 22%
- Responders: Abdominal pain reduction of 1 point in mean (subjects with IBS; Study [1]): 41% vs 52%
- Responders: Overall reduction of mean weekly abdominal pain by > = 25% (subjects with IBS; Study [1]): 47% vs 56%
- Responders: Overall reduction of mean weekly abdominal pain by > = 50% (subjects with IBS; Study [1]): 28% vs 36%
- Responders: Overall reduction of mean weekly abdominal pain by > = 75% (subjects with IBS; Study [1]): 10% vs 14%
- Responders: Overall reduction of median weekly abdominal pain by > = 25% (subjects with IBS; Study [1]): 52% vs 63%
- Responders: Overall reduction of median weekly abdominal pain by > = 50% (subjects with IBS; Study [1]): 34% vs 44%
- Responders: Overall reduction of median weekly abdominal pain by > = 75% (subjects with IBS; Study [1]): 19% vs 23%
- Responders: Abdominal pain reduction of 1 point in median (subjects with IBS; Study [1]): 52% vs 63%
- Responders: Daily abdominal pain <2 (subjects with IBS; Study [1], at least 50% of days in a week for at least 2 weeks during PEP): 32% vs 40%
- Global IBS symptoms: at least 2 out of 4 weeks adequate relief during weeks 3 through 6 (weekly question) (subjects with IBS; first column (Study 1), second figure of 'x vs y'): 41%
- Global IBS symptoms: at least 2 out of 4 weeks adequate relief during weeks 3 through 6 (weekly question) (subjects with IBS; second column (Study 2)): 41%
- Global IBS symptoms: at least 2 out of 4 weeks adequate relief during weeks 3 through 6 (weekly question) (subjects with IBS; third column (Combined)): 41%
